Assay results as given in patent publication US20090227450A1, “Triazole-Based Fungicidal Mixtures” (BASF Aktiengesellschaft, priority 2005, published 2009).

Test system: Botrytis cinerea
Experiment: Activity against the gray mold pathogen Botrytis cinerea in the microtiter test (Botrci)
Assay type: cell-based
Details: microtiter plate, 405 nm, day 7 after inoculation
Method: The expected efficacies of active compound combinations were determined using Colby's formula (Colby, S. R. “Calculating synergistic and antagonistic responses of herbicide combinations”, Weeds, 15, 20-22, 1967) and compared with the observed efficacies.
E=x+y−x·y/100 • E expected efficacy, expressed in % of the untreated control, when using the mixture of the active compounds A and B at the concentrations a and b • x efficacy, expressed in % of the untreated control, when using the active compound A at the concentration a • y efficacy, expressed in % of the untreated control, when using the active compound B at the concentration b
The active compounds were formulated separately as a stock solution having a concentration of 10 000 ppm in DMSO.
The active compound epoxiconazole was used as a commercial formulation.
The stock solution is pipetted onto a microtiter plate (MTP) and diluted to the stated active compound concentration using a malt-based aqueous nutrient medium for fungi. An aqueous spore suspension of Botrytis cinerea was then added. The plates were placed in a water vapor-saturated chamber at temperatures of 18° C. Using an absorption photometer, the MTPs were measured at 405 nm on day 7 after the inoculation. The measured parameters were compared to the growth of the active compound-free control variant and the fungus- and active compound-free blank value to determine the relative growth in % of the pathogens in the individual active compounds.
The visually determined values for the percentage of infected leaf area were initially converted into a mean value and then converted into efficacies in % of the untreated control. An efficacy of 0 means the same degree of infection as in the untreated control, an efficacy of 100 means 0% infection. The expected efficacies for active compound combinations were determined using Colby's formula (Colby, S. R. (Calculating synergistic and antagonistic responses of herbicide combinations”, Weeds, 15, pp. 20-22, 1967) and compared to the observed efficacies.

| SMILES | Observed effect (%) (conc. 0.016 ppm) | Observed effect (%) (conc. 0.063 ppm) | Observed effect (%) (conc. 0.004 ppm) | Observed effect (%) (conc. 0.25 ppm) |
| --- | --- | --- | --- | --- |
| Fc1ccc(C2(Cn3cncn3)OC2c2ccccc2Cl)cc1 (stereo not shown) [Epoxiconazole, epoxiconazole] | 15% | 48% | – | – |
| CO/C=C(/C(=O)OC)c1ccccc1COc1cccc(C(F)(F)F)n1 [Picoxystrobin, picoxystrobin] | – | – | 0% | 3% |
